System: yeast tRNA^Phe (RNA, tRNA) GCGGAUUUAGCUCAGUUGGGAGAGCGCCAGACUGAAGAUCUGGAGGUCCUGUGUUCGAUCCACAGAAUUCGCACCA
Assay: inhibition of lead(II)-induced cleavage, gel
Conditions: 10 mM Mg2+, 1 mM NH4+, 0.5 mM Pb2+; 50% inhibition of Pb2+ cleavage; 50 mM Tris-HCl pH 7.5; RNA 2.4 μM

Q: `CN(C)c1ccc2cc3ccc(N(C)C)cc3[o+]c2c1` was tested. Which Ki did it give?
A: 166 ± 42 µM

Q: For `CN(C)c1ccc2nc3ccc(N(C)C)cc3[s+]c2c1`, which Ki is on record?
A: 98 ± 20 µM

Q: With `CN(C)c1ccc2nc3ccc(N)cc3[s+]c2c1` as the compound, how does the Ki read?
A: 52 ± 8.3 µM

Q: With `CNc1ccc2nc3ccc(=[N+](C)C)cc-3sc2c1` as the compound, how does the Ki read?
A: 58 ± 28 µM

Reference: paper PMC5039424 (2016)
